≈ marks a conversion by molar mass, not a printed value. Non-standard residues stand in square brackets, D forms with d. Residues, ends and D or L forms follow the SMILES beside them. ξ: configuration not given here. Ac6c = NC1(C(=O)O)CCCCC1; Ac5c = NC1(C(=O)O)CCCC1; ξDap = NCC(N)C(=O)O
What was measured:
Klebsiella aerogenes = assay: Antibacterial activity against carbapenem-resistant Enterobacter aerogenes NCDC819-56 ATCC 13048 by two fold serial dilution method; type: functional
Acinetobacter baumannii = assay: Antibacterial activity against Acinetobacter baumannii B5W71 ATCC 15149 by two fold serial dilution method; type: functional
[1] = Antibacterial activity against Salmonella enterica LT2 Typhimurium ATCC 15277 by two fold serial dilution method; type: functional
Pseudomonas aeruginosa = assay: Antibacterial activity against Pseudomonas aeruginosa Boston 41501 ATCC 27853 by two fold serial dilution method; type: functional
[2] = Antibacterial activity against carbapenem-resistant Klebsiella pneumoniae K6 ATCC 700603 by two fold serial dilution method; type: functional, Klebsiella pneumoniae 700603
Enterococcus faecalis = assay: Antibacterial activity against Enterococcus faecalis Portland ATCC 29212 by two fold serial dilution method; type: functional; conditions: ATCC 29212 Portland
Staphylococcus aureus [3] = assay: Antibacterial activity against methicillin-resistant Staphylococcus aureus USA 300 NRS 384 by two fold serial dilution method; type: functional
[4] = Antibacterial activity against Clostridium difficile VIP 10463 ATCC 43255 by two fold serial dilution method; type: functional, Clostridium difficile ATCC 43255; conditions: Clostridioides difficile
Staphylococcus aureus [5] = assay: Antibacterial activity against Staphylococcus aureus Seattle 1945 ATCC 25923 by two fold serial dilution method; type: functional
Streptococcus pneumoniae = assay: Antibacterial activity against Streptococcus pneumoniae 262 ATCC 49619 by two fold serial dilution method; type: functional
Neisseria gonorrhoeae = assay: Antibacterial activity against Neisseria gonorrhoeae F-18 ATCC 49226 by two fold serial dilution method; type: functional
[6] = Antibacterial activity against Bacillus anthracis Ames NR-3838 by two fold serial dilution method; type: functional, Bacillus anthracis str. Ames
[7] = Antibacterial activity against Francisella tularensis SCHU S4 NR-643 by two fold serial dilution method; type: functional
[8] = Antibacterial activity against Yersinia pestis CO92 NR641 by two fold serial dilution method; type: functional
[9] = tested on: Burkholderia pseudomallei; assay: Antibacterial activity against Burkholderia pseudomallei AHS 1 NCTC 8016 by two fold serial dilution method; type: functional
[10] = tested on: Mycobacterium tuberculosis; assay: Antibacterial activity against Mycobacterium tuberculosis H37Ra ATCC 2517 by two fold serial dilution method; type: functional
CFPAC-1 = assay: Antiproliferative activity against human CFPAC-1 cells after 72 hrs by Celltiter-Glo luminescent cell viability assay; type: functional, cell-based; conditions: CFPAC-1, 72 h
MCF7 = assay: Antiproliferative activity against human MCF7 cells after 72 hrs by Celltiter-Glo luminescent cell viability assay; type: functional, cell-based; conditions: MCF7, 72 h
[11] = Antiproliferative activity against human IGROV1 cells after 72 hrs by Celltiter-Glo luminescent cell viability assay; type: functional, cell-based; conditions: IGROV-1, 72 h
[12] = Antiproliferative activity against human COLO205 cells after 72 hrs by Celltiter-Glo luminescent cell viability assay; type: functional, cell-based; conditions: COLO 205, 72 h
[13] = Antiproliferative activity against human DLD1 cells after 72 hrs by Celltiter-Glo luminescent cell viability assay; type: functional, cell-based; conditions: DLD-1, 72 h
[14] = Antiproliferative activity against human UACC62 cells after 72 hrs by Celltiter-Glo luminescent cell viability assay; type: functional, cell-based; conditions: UACC-62, 72 h
[15] = Antiproliferative activity against human MIAPaCa2 cells after 72 hrs by Celltiter-Glo luminescent cell viability assay; type: functional, cell-based; conditions: MIA PaCa-2, 72 h
A498 = assay: Antiproliferative activity against human A498 cells after 72 hrs by Celltiter-Glo luminescent cell viability assay; type: functional, cell-based; conditions: A498, 72 h
[16] = Antiproliferative activity against human PC3 cells after 72 hrs by Celltiter-Glo luminescent cell viability assay; type: functional, cell-based; conditions: PC-3, 72 h
A549 = assay: Antiproliferative activity against human A549 cells after 72 hrs by Celltiter-Glo luminescent cell viability assay; type: functional, cell-based; conditions: A549, 72 h
NCI-H69 = assay: Antiproliferative activity against human NCI-H69 cells after 72 hrs by Celltiter-Glo luminescent cell viability assay; type: functional, cell-based; conditions: NCI-H69, 72 h
RL = assay: Antiproliferative activity against human RL cells after 72 hrs by Celltiter-Glo luminescent cell viability assay; type: functional, cell-based

Row | SMILES | MIC (Klebsiella aerogenes) [µM] | MIC (Acinetobacter baumannii) [µM] | MIC [1] [µM] | MIC (Pseudomonas aeruginosa) [µM] | MIC [2] [µM] | MIC (Enterococcus faecalis) [µM] | MIC (Staphylococcus aureus [3]) [µM] | MIC [4] [µM] | MIC (Staphylococcus aureus [5]) [µM] | MIC (Streptococcus pneumoniae) [µM] | MIC (Neisseria gonorrhoeae) [µM] | MIC [6] [µM] | MIC [7] [µM] | MIC [8] [µM] | MIC [9] [µM] | MIC [10] [µM] | IC50 (CFPAC-1) [nM] | IC50 (MCF7) [µM] | IC50 [11] [µM] | IC50 [12] [µM] | also measured
1 | CC(=O)NCC(=O)N[C@@H](Cc1ccccc1)C(=O)NC1(C(=O)NCC(=O)NC2(C(=O)N[C@@H](CCCCN)C(=O)NC3(C(=O)NCC(=O)NC4(C(=O)N[C@@H](Cc5ccccc5)C(=O)NC5(C(=O)NCC(=O)NC6(C(=O)NCC(=O)N[C@@H](CCCCN)C(=O)NC7(C(=O)N[C@@H](CCCCN)C(=O)N[C@@H](CCCCN)C(=O)N[C@@H](CCCCN)C(=O)N[C@@H](CCCCN)C(N)=O)CCCC7)CCCC6)CCCC5)CCCC4)CCCC3)CCCC2)CCCC1 (Ac-GF[Ac5c]G[Ac5c]K[Ac5c]G[Ac5c]F[Ac5c]G[Ac5c]GK[Ac5c]KKKK-NH2) | > 46 | 2.86 (≈ 6.25 µg/mL) | 5.71 (≈ 12.5 µg/mL) | 22.9 (≈ 49.9 µg/mL) | > 46 | > 46 | > 46 | 1.43 (≈ 3.13 µg/mL) | > 46 | > 46 | 22.9 (≈ 50 µg/mL) | > 46 | 22.9 (≈ 50 µg/mL) | > 46 | > 46 | 11.4 (≈ 25 µg/mL) | > 7500 | > 7.5 | > 7.5 | > 7.5 | IC50 [13]: > 7.5 µM; IC50 [14]: > 7.5 µM; IC50 [15]: > 7.5 µM; IC50 (A498): > 7.5 µM; IC50 [16]: > 7.5 µM; IC50 (A549): > 7.5 µM; IC50 (NCI-H69): > 7500 nM; IC50 (RL): > 7500 nM
2 | CN[C@@H]1[C@H](O[C@H]2[C@H](O[C@H]3[C@H](O)[C@@H](O)[C@H](N=C(N)N)[C@@H](O)[C@@H]3N=C(N)N)O[C@@H](C)[C@]2(O)C=O)O[C@@H](CO)[C@H](O)[C@H]1O [STREPTOMYCIN] |  |  |  |  |  |  |  |  |  |  |  |  |  |  |  | 3.4 (≈ 1.98 µg/mL) |  |  |  |  | 
3 | CC(=O)NCC(=O)N[C@@H](Cc1ccccc1)C(=O)NC1(C(=O)NCC(=O)NC2(C(=O)NC(CN)C(=O)NC3(C(=O)NCC(=O)NC4(C(=O)N[C@@H](Cc5ccccc5)C(=O)NC5(C(=O)NCC(=O)NC6(C(=O)NCC(=O)NC(CN)C(=O)NC7(C(=O)NC(CN)C(=O)NC(CN)C(=O)NC(CN)C(=O)NC(CN)C(N)=O)CCCCC7)CCCCC6)CCCCC5)CCCCC4)CCCCC3)CCCCC2)CCCCC1 (stereo partly specified) (Ac-GF[Ac6c]G[Ac6c][ξDap][Ac6c]G[Ac6c]F[Ac6c]G[Ac6c]G[ξDap][Ac6c][ξDap][ξDap][ξDap][ξDap]-NH2) | 1.54 (≈ 3.13 µg/mL) | > 48 | 24.6 (≈ 50 µg/mL) | 3.08 (≈ 6.26 µg/mL) | 3.08 (≈ 6.26 µg/mL) | 3.08 (≈ 6.26 µg/mL) | 6.16 (≈ 12.5 µg/mL) | 3.08 (≈ 6.26 µg/mL) | 6.16 (≈ 12.5 µg/mL) | 24.6 (≈ 50 µg/mL) | 6.16 (≈ 12.5 µg/mL) | 6.16 (≈ 12.5 µg/mL) | 49.2 (≈ 99.9 µg/mL) | > 49 | > 49 | 24.6 (≈ 50 µg/mL) |  |  |  |  | 
4 | CC(=O)NCC(=O)N[C@@H](Cc1ccccc1)C(=O)NC1(C(=O)NCC(=O)NC2(C(=O)N[C@@H](CCCNC(=N)N)C(=O)NC3(C(=O)NCC(=O)NC4(C(=O)N[C@@H](Cc5ccccc5)C(=O)NC5(C(=O)NCC(=O)NC6(C(=O)NCC(=O)N[C@@H](CCCNC(=N)N)C(=O)NC7(C(=O)N[C@@H](CCCNC(=N)N)C(=O)N[C@@H](CCCNC(=N)N)C(=O)N[C@@H](CCCNC(=N)N)C(=O)N[C@@H](CCCNC(=N)N)C(N)=O)CCCCC7)CCCCC6)CCCCC5)CCCCC4)CCCCC3)CCCCC2)CCCCC1 (Ac-GF[Ac6c]G[Ac6c]R[Ac6c]G[Ac6c]F[Ac6c]G[Ac6c]GR[Ac6c]RRRR-NH2) | 2.55 (≈ 6.25 µg/mL) | 2.55 (≈ 6.25 µg/mL) | 5.09 (≈ 12.5 µg/mL) | 2.55 (≈ 6.25 µg/mL) | 20.4 (≈ 49.9 µg/mL) | 1.28 (≈ 3.14 µg/mL) | 5.09 (≈ 12.5 µg/mL) | 2.55 (≈ 6.25 µg/mL) | 1.28 (≈ 3.14 µg/mL) | 10.2 (≈ 25 µg/mL) | 2.56 (≈ 6.28 µg/mL) | 2.56 (≈ 6.28 µg/mL) | 40.8 (≈ 99.9 µg/mL) | > 41 | > 41 | 40.8 (≈ 99.9 µg/mL) | 2600 | 7 | 6 | 6.6 | IC50 [13]: 6.4 µM; IC50 [14]: 6.4 µM; IC50 [15]: 5 µM; IC50 (A498): 5.6 µM; IC50 [16]: 7.4 µM; IC50 (A549): 6.4 µM; IC50 (NCI-H69): 2000 nM; IC50 (RL): 1100 nM
5 | CN[C@@H](CC(C)C)C(=O)N[C@H]1C(=O)N[C@@H](CC(N)=O)C(=O)N[C@H]2C(=O)N[C@H]3C(=O)N[C@H](C(=O)N[C@@H](C(=O)O)c4cc(O)cc(O)c4-c4cc3ccc4O)[C@H](O)c3ccc(c(Cl)c3)Oc3cc2cc(c3O[C@H]2O[C@@H](CO)[C@H](O)[C@@H](O)[C@@H]2O[C@@H]2C[C@@](C)(N)[C@@H](O)[C@@H](C)O2)Oc2ccc(cc2Cl)[C@H]1O |  |  |  |  |  |  | 2.7 (≈ 3.91 µg/mL) | 0.17 (≈ 0.246 µg/mL) |  | 1.99 (≈ 2.88 µg/mL) |  |  |  |  |  |  |  |  |  |  | 

Source: ChEMBL document CHEMBL3822432, “Antibacterial and anticancer activity of a series of novel peptides incorporating cyclic tetra-substituted C(α) amino acids” (Bioorg Med Chem, 2016)
